The results in this text go back to patent publication US12364702B2, “Highly active sting protein agonist compound” (ADLAI NORTYE BIOPHARMA CO., LTD., priority 2018, dated 2025).

SMILES strings stand for the structures. Where only a bound is given, the exact number is not on record here.

This test addresses STING (Homo sapiens, UniProt Q86WV6). The experiment in a line: IFN-β secretion from THP1 by STING activation (hIFNβ ELISA). Format: cell-based. As to conditions: THP1 cells, 24 h incubation, IFN-β in supernatant, top dose set according to solubility; for EC50: read-out: hIFNβ ELISA (EC50). As for the experimental part: In this assay, activation of STING by compounds was evaluated by detecting their ability to stimulate the secretion of IFN-β (interferon-beta) from THP1. THP1 was purchased from National Collection of Authenticated Cell Cultures (Cat #TCHu 57). The top dose of compounds was setted according to their solubility. First, Compounds were 3 times diluted with medium, 8-dose points in total. The final DMSO concentration was 0.2%. THP1 during the logarithmic phase was resuspended to 2×10^6 cells/ml in assay medium. The THP1-cell suspension was dispensed into a 96-well U bottom plate containing 50 ul of compound diluted in medium. After 24 h incubation at 37° C., 5% CO2, the supernatant was collected. The concentration of IFN-β in the supernatant was measured using a human IFNβ ELISA KIT (R&D, DY814-05). The data was fitted with GraphPad Prism or XLfit to calculate EC50 values.
Background: ELISA stands for enzyme-linked immunosorbent assay.

Chain of STING (Q86WV6 whole entry): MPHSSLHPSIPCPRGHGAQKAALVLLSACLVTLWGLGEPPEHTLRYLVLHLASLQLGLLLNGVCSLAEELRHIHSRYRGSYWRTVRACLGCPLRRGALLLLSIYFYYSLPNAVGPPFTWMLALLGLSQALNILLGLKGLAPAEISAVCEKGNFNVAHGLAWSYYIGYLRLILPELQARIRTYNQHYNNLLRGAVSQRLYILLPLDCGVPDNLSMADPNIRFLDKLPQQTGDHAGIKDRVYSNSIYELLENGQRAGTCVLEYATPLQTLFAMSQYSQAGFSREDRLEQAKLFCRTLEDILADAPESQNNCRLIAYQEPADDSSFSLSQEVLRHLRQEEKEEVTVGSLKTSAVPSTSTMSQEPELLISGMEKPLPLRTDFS

For `CCn1nc(C)cc1C(=O)Nc1nc2cc(C(N)=O)cc(OCCCOC)c2n1CCC[C@H]1COc2cc(-c3nn[nH]n3)cc3nc(NC(=O)c4cc(C)nn4CC)n1c23` [Example 26, (S)-2-(1-ethyl-3-methyl-1H-pyrazole-5-carboxamido)-1-(3-(2-(1-ethyl-3-methyl-1H-pyrazole-5-carboxamido)-7-(2H-tetrazol-5-yl)-3,4-dihydro-5-oxa-1,2a-diazaacenaphthylen-3-yl)propyl)-7-(3-methoxypropoxy)-1H-benzo[d]imidazole-5-carboxamide], the “hIFNβ ELISA (EC50, μM)” value was “inactive”.
Consider `CCn1nc(C)c2c1C(=O)Nc1nc3cc(C(N)=O)cc(OCCCOC)c3n1CCC[C@H]1COc3cc(C(N)=O)cc4nc(n1c34)NC(=O)c1cc(C)nn1CCCCC2` [Example 59, (S)-17-ethyl-24-(3-methoxypropoxy)-8,15-dimethyl-6,18-dioxo-5,6,10,11,12,13,14,17, 18, 19, 26, 27, 27a,28-tetradecahydro-25H-29-oxa-4,4a1,5,9,9a,16, 17, 19, 20, 24b-decaazadicyclopenta[11, 12:18,19]indeno[1′,2′:7,8]cyclohenicosa[1,2,3-bc]acenaphthylene-2,22-dicarboxamide], for which the EC50 (usually the concentration needed to bring the measured effect to its halfway point) is over 5.6 µM.
On the same count and under the same terms, under `CCn1nc(C)cc1C(=O)Nc1nc2cc(C(N)=O)cc(OCCCN(C)C(=O)CN(C)C)c2n1CCC[C@H]1COc2cc(C(N)=O)cc3nc(NC(=O)c4cc(C)nn4CC)n1c23` [Example 28, (S)-3-(3-(5-carbamoyl-7-(3-(2-(dimethylamino)-N-methylacetamido)propoxy)-2-(1-ethyl-3-methyl-1H-pyrazole-5-carboxamido)-1H-benzo[d]imidazol-1-yl)propyl)-2-(1-ethyl-3-methyl-1H-pyrazole-5-carboxamido)-3,4-dihydro-5-oxa-1,2a-diazaacenaphthylene-7-carboxamide] stands 11.7 µM; under `CCn1nc(C)c2c1C(=O)Nc1nc3cc(C(N)=O)cc4c3n1[C@@H](CCCn1c(nc3cc(C(N)=O)cc(OCCCOC)c31)NC(=O)c1cc(C)nn1CCCCC2)CO4` [Example 58, (S)-7-Ethyl-24-(3-methoxypropoxy)-9,16-dimethyl-6,18-dioxo-5,6,7,10,11,12,13,14,18,19,26,27,27a,28-tetradecahydro-25H-29-oxa-4,4a1,5,7,8,14a,15,19,20,24b-decaaza-dicyclopenta[11, 12:18,19]indeno[1′,2′:7,8]cyclohenicosa[1,2,3-bc]acenaphthylene-2,22-dicarboxamide], over 4.3 µM.
